From patent US20260070917A1, “CYCLIN DEPENDENT KINASE DEGRADERS AND METHODS OF USE THEREOF” (Differentiated Therapeutics Inc, priority 2023, published 2026)
Like-named read-outs stand apart in the source and are kept apart here.

Experiments:
Type in all cases: cell-based
CDK9 = biological target: T1, CDK9 (Homo sapiens, UniProt P50750); experiment: HiBit Assay Protocol for CDK9 (HIBIT protein quantification, degradation); details: HEK293-CDK9-Hibit cells, compound treatment for 6 hours; for Dmax: read-out: CDK9 HIBIT Protein Quantification Maximum; for DC50: ABS DC50
T1 construct: host or cells: HEK293-CDK9-Hibit
How it was run: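 HEK293 cells carrying HiBiT-tagged CDK9 treated 6 h with compounds in a 3-fold, 10-point dilution series. CDK9 level read by lytic Nano-Glo HiBiT/LgBiT luminescence and normalized to 0.1% DMSO (high) and medium-only (low) controls. DC50 from curve fitting.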

CCNE1 = biological target: T2, CCNE1 (Homo sapiens, UniProt P24864); experiment: HiBit Assay Protocol for CCNE1 (HIBIT protein quantification, degradation); details: HEK293-CCNE1-Hibit cells, compound treatment for 6 hours
T2 construct: host or cells: HEK293-CCNE1-Hibit
How it was run: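 HEK293 cells expressing HiBiT-tagged CCNE1 were seeded overnight, then treated 6 h with a 3-fold, 10-point compound dilution series. HiBiT levels were read by lytic LgBiT luminescence and normalised to DMSO-only (high) and medium-only (low) controls. DC50 was derived by curve fitting.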

CDK2 = biological target: T3, CDK2 (Homo sapiens, UniProt P24941); experiment: HiBit Assay Protocol for CDK2 (HIBIT protein quantification, degradation); details: HEK293-CDK2-Hibit cells, compound treatment for 6 hours; for DC50: ABS DC50
T3 construct: host or cells: HEK293-CDK2-Hibit
How it was run: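 HEK293 cells expressing HiBiT-tagged CDK2 were seeded overnight, then treated 6 h with a 3-fold, 10-point compound dilution series. CDK2 levels were read as luminescence after lytic HiBiT/LgBiT detection, normalised to DMSO-only and medium-only controls, and DC50 derived by curve fitting.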

T1 sequence (P50750 whole entry): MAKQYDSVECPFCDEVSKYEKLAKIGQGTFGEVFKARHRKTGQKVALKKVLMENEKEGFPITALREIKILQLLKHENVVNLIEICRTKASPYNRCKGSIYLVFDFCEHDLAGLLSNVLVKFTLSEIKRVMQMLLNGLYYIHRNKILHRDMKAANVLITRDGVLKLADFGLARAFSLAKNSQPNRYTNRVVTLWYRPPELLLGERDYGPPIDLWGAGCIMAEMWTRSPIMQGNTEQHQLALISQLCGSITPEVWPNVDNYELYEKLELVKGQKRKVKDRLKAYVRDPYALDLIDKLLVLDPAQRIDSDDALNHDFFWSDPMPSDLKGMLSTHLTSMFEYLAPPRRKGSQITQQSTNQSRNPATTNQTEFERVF
T2 sequence (P24864 whole entry): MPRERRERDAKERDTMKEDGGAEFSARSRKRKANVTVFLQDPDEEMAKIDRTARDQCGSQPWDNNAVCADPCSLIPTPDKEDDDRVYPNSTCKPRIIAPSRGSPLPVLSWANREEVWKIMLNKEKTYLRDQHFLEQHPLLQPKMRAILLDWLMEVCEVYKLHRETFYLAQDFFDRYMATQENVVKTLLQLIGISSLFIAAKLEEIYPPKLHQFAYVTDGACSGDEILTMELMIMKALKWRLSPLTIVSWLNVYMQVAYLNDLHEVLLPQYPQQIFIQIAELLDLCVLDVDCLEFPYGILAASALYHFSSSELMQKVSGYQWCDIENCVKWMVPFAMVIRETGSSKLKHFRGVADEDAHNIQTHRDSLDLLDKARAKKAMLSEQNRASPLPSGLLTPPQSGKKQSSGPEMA

Dmax (CDK9; 6 h) [%]	CCNE1 HIBIT Protein Quantification Maximum (CCNE1) [%]	CDK2 HIBIT Protein Quantification Maximum (CDK2) [%]	DC50 (CDK2) [nM]	SMILES	Dmax (CDK9) [%]	DC50 (CDK9) [nM]
9	20	29		CC1CCCC1N1C(=O)C2(CC2)c2cnc(NC3CCN(S(=O)(=O)N4CC5(CCCCN5C(=O)CCCCCc5ccc6c(c5)n(C)c(=O)n6C5CCC(=O)NC5=O)C4)CC3)nc21 (centres unmarked) [Compound 76]		
15	14	62	17	CC1CCCC1N1C(=O)C2(CC2)c2cnc(NC3CCN(S(=O)(=O)N4CC5C4CCN5C(=O)CCCc4cccc5c4n(C)c(=O)n5C4CCC(=O)NC4=O)CC3)nc21 (centres unmarked) [Compound 31]		
12	44	79	47	O=C1CCC(N2Cc3cc(N4CCN(Cc5cccc(S(=O)(=O)N6CCC(Nc7ncc8c(n7)N([C@@H]7CCC[C@@H](O)C7)C(=O)C87CC7)CC6)c5)CC4)c(F)cc3C2=O)C(=O)N1 (stereo partly drawn) [Compound 121, 3-(6-fluoro-5-(4-(3-((4-((7′-((1R,3R)-3-hydroxycyclohexyl)-6′-oxo-6′,7′-dihydrospiro [cyclopropane-1,5′-pyrrolo[2,3-d]pyrimidin]-2′-yl)amino)piperidin-1-yl)sulfonyl)benzyl)piperazin-1-yl)-1-oxoisoindolin-2-yl)piperidine-2,6-dione]		
14	15	50	8	CC1CCCC1N1C(=O)C2(CC2)c2cnc(NC3CCN(S(=O)(=O)C4CCN(C(=O)CCCCCc5ccc6c(c5)n(C)c(=O)n6C5CCC(=O)NC5=O)C4)CC3)nc21 (centres unmarked) [Compound 81]		
11	1	31		CC1CCCC1N1C(=O)C2(CC2)c2cnc(NC3CCN(S(=O)(=O)N4CC5CN(C(=O)CCCCc6cccc7c6n(C)c(=O)n7C6CCC(=O)NC6=O)CC54)CC3)nc21 (centres unmarked) [Compound 99]		
46	14	41		CC1CCCC1N1C(=O)C2(CC2)c2cnc(NC3CCN(S(=O)(=O)N4CC5(CN(C(=O)CCCCc6cccc7c6n(C)c(=O)n7C6CCC(=O)NC6=O)C5)C4)CC3)nc21 (centres unmarked) [Compound 97]		
2	40	80	2.48	C[C@H](c1cccc(S(=O)(=O)N2CC[C@H](Nc3ncc4c(n3)N([C@@H]3CCC[C@@H](O)C3)C(=O)C43CC3)[C@H](F)C2)c1)N1CCC(c2ccc3c(N4CCC(=O)NC4=O)nn(C)c3c2)CC1 [Compound 198]		
17	23	70	7	CC1CCCC1N1C(=O)C2(CC2)c2cnc(NC3CCN(S(=O)(=O)N4CCC5(CCN(C(=O)CCCCCc6cccc7c6n(C)c(=O)n7C6CCC(=O)NC6=O)C5)C4)CC3)nc21 (centres unmarked) [Compound 42]		
8	14	39		CC1CCCC1N1C(=O)C2(CC2)c2cnc(NC3CCN(S(=O)(=O)N4CC5(CCCN(C(=O)CCCc6ccc7c(c6)n(C)c(=O)n7C6CCC(=O)NC6=O)C5)C4)CC3)nc21 (centres unmarked) [Compound 66]		
11	45	91	4.32	CC(c1cccc(S(=O)(=O)N2CC[C@H](Nc3ncc4c(n3)N([C@@H]3CCC[C@@H](O)C3)C(=O)C43CC3)[C@H](F)C2)c1)N1CCN(c2ccc3c(N4CCC(=O)NC4=O)nn(C)c3c2)CC1 (some centres unmarked) [Compound 187]		
41	40	56	53	CC1CCCC1N1C(=O)C2(CC2)c2cnc(NC3CCN(S(=O)(=O)N4CC5(CCN(C(=O)CCCCCCCCCc6cccc7c6n(C)c(=O)n7C6CCC(=O)NC6=O)CC5)C4)CC3)nc21 (centres unmarked) [Compound 51]		
20	45	79	3.34	Cn1nc(N2CCC(=O)NC2=O)c2cc(F)c(C3CCN(Cc4cccc(S(=O)(=O)N5CCC(Nc6ncc7c(n6)N([C@@H]6CCC[C@@H](O)C6)C(=O)C76CC6)CC5)c4)CC3)cc21 [Compound 176, 1-[5-Fluoro-6-(1-{[3-(4-{7′-[(1R,3R)-3-hydroxycyclohexyl]-6′-oxospiro[cyclopropane-1,5′-pyrrolo[2,3-d]pyrimidin]-2′-ylamino}piperidin-1-ylsulfonyl)phenyl]methyl}piperidin-4-yl)-1-methylindazol-3-yl]-1,3-diazinane-2,4-dione]		
28	17	18		CC1CCCC1N1C(=O)C2(CC2)c2cnc(NC3CCN(S(=O)(=O)N4CCC5(CCN(C(=O)CCc6ccc7c(c6)n(C)c(=O)n7C6CCC(=O)NC6=O)C5)C4)CC3)nc21 (centres unmarked) [Compound 60]		
57	46	71	4	CC1CCCC1N1C(=O)C2(CC2)c2cnc(NC3CCN(S(=O)(=O)N4CCN(C(=O)CCCCCc5cccc6c5n(C)c(=O)n6C5CCC(=O)NC5=O)CC4)CC3)nc21 (centres unmarked) [Compound 38]		23
26	40	71	2.91	Cc1ccc(S(=O)(=O)N2CCC(Nc3ncc4c(n3)N([C@@H]3CCC[C@@H](O)C3)C(=O)C43CC3)CC2)cc1CN1CCC(c2ccc3c(N4CCC(=O)NC4=O)nn(C)c3c2)CC1 [Compound 168]		
8	13	25		CC1CCCC1N1C(=O)C2(CC2)c2cnc(NC3CCN(S(=O)(=O)N4CC5CN(C(=O)CCc6ccc7c(c6)n(C)c(=O)n7C6CCC(=O)NC6=O)CC5C4)CC3)nc21 (centres unmarked) [Compound 55]		

SMILES	Dmax (CDK9; 6 h) [%]	CCNE1 HIBIT Protein Quantification Maximum (CCNE1) [%]	CDK2 HIBIT Protein Quantification Maximum (CDK2) [%]	DC50 (CDK2) [nM]	Dmax (CDK9) [%]	DC50 (CDK9) [nM]
Cn1c(=O)n(C2CCC(=O)NC2=O)c2cccc(N3CCC(Cn4cc(S(=O)(=O)N5CCC(Nc6ncc7c(n6)N([C@@H]6CCC[C@@H](O)C6)C(=O)C76CC6)CC5)cn4)CC3)c21 (stereo partly drawn) [Compound 130, 3-(4-(4-((4-((4-((7′-((1R,3R)-3-Hydroxycyclohexyl)-6′-oxo-6′,7′-dihydrospiro[cyclopropane-1,5′-pyrrolo[2,3-d]pyrimidin]-2′-yl)amino)piperidin-1-yl)sulfonyl)-1H-pyrazol-1-yl)methyl)piperidin-1-yl)-3-methyl-2-oxo-2,3-dihydro-1H-benzo[d]imidazol-1-yl)piperidine-2,6-dione]		34	76	15.8	13	
O=C1CCC(N2Cc3cc(N4CCC(CN5CCN(c6cccc(S(=O)(=O)c7ccc(Nc8ncc9c(n8)N([C@@H]8CCC[C@@H](O)C8)C(=O)C98CC8)cc7)c6)CC5)CC4)ccc3C2=O)C(=O)N1 (stereo partly drawn) [Compound 124, 3-{5-[4-({4-[3-(4-{7′-[(1R,3R)-3-hydroxycyclohexyl]-6′-oxospiro [cyclopropane-1,5′-pyrrolo[2,3-d]pyrimidin]-2′-ylamino}benzenesulfonyl)phenyl]piperazin-1-yl}methyl)piperidin-1-yl]-1-oxo-3H-isoindol-2-yl}piperidine-2,6-dione]		48	61	6	57	73.6
